Source: a melting point compilation (Tetko et al.; mined from patent text by program, amines drawn as free bases though some values may be those of a salt)

melting point [°C]	SMILES
168 to 169	OCC1CCc2c([nH]c3ccc(Cl)cc23)C1 (configuration not stated)
158 to 160	N#Cc1ccc2[nH]cc(C3=CCC4(CC3)OCCO4)c2c1
99 to 102	CCCCOC(=O)[C@H]1CN(c2ccc3c(c2)sc(=O)n3CC)C(=O)O1
183	CCC1C(c2ccc(OC(Cl)C(=O)O)cc2Cl)=CC(=O)CC1C (configuration not stated)
108	O=C(O)c1ccc(OCCNC(=O)C2Cc3ccccc3N2S(=O)(=O)c2ccc(-c3ccc(F)cc3)cc2)cc1 (configuration not stated)
121	CNc1ccc(CN2CCN(C(c3ccccc3)c3ccccc3)CC2)cc1[N+](=O)[O-]
187	O=C1OC(=Cc2ccccc2)c2ccc(-c3ccccc3)cc21
55 to 57	CN1C(=O)CC[C@]2(C)c3ccc(-c4cccc(CNC(c5ccccc5)c5ccccc5)c4)cc3CC[C@@H]12
122	FC(F)(F)c1ccc(-c2cc(Oc3cccc4sccc34)ncn2)cc1
214	N#CC1CCCCC1n1nc(-c2c(-c3ccccc3)nn3ccccc23)ccc1=O (configuration not stated)
108 to 110	C[C@@H](Nc1ncnc2cc(OC3CCC3)c([N+](=O)[O-])cc12)c1ccccc1
179 to 182	Cc1cc(N2N=C(c3ccc([N+](=O)[O-])cc3)c3cc4c(cc3CC2C)OCO4)on1 (configuration not stated)
206 to 208	NS(=O)(=O)c1ccc(-c2cnn(C3CC=CCC3)c(=O)c2-c2ccc(F)cc2)cc1 (configuration not stated)
108 to 110	Cc1cc(C)c2cccc(OCc3c(Cl)ccc(S(=O)(=O)N4CCC[C@H]4C(=O)NCCCNC(=O)c4cccc(C(N)=NO)c4)c3Cl)c2n1
100	COc1ccccc1-c1cc(Cl)cc2c1NC(CN)CO2 (configuration not stated)
145 to 146	O=S(=O)(c1ccccc1)c1ccc(Oc2ccc(Cl)c(Cl)c2)cc1
113 to 114	CON=C(C(=O)OC)c1ccccc1CSc1nc2ccccc2s1
206 to 207	C[C@@H]1CN(CC(=O)Nc2nccc3ccccc23)C[C@H](C)N1c1ncnc2sccc12
153 to 155	Cc1cscc1-c1nc(-c2c(F)cccc2Cl)nn1C
182 to 183	CCCc1nc2c(N)nc3cc(OCc4cccc(Cl)c4)ccc3c2n1CC(C)C

melting point [°C]	SMILES
165 to 166	CCCC[C@]1(CC)CS(=O)(=O)c2cc(O)c(OC)cc2[C@@H](c2ccccc2)N1
153 to 155	Fc1cc(Cl)cc2cc(-c3ccccc3)[nH]c12
125 to 127	COc1cc(C)c(C(=O)c2c(C(F)(F)F)ccnc2OC)cc1OC
84 to 85.5	Cc1ccc(C(=O)c2ccc(C)cc2F)c(F)c1
178 to 180	N#Cc1cccc(-c2nc(N3CCC(CC(=O)O)CC3)cc3cccnc23)c1
115	COC(=O)CCCc1cc2cc(C(F)(F)F)ccc2[nH]1
93.3 to 96.2	O=C(Nc1ccc(F)cc1)c1ccccc1Cl
209	O=C(O)c1ccc(CNCc2cc(Br)ccc2OCc2ccccc2)cc1
136 to 139	COc1cccc(COc2ncc(F)c(N/N=C/c3cccs3)n2)c1
131 to 134	COc1ccc(NN=C(Sc2cc(C)ccc2C)C(C)=O)cc1
95	CCCC1CCC(c2cc(F)c(C(F)(F)Oc3ccc(-c4cc(F)c(C(F)(F)F)c(F)c4)c(F)c3)c(F)c2)OC1 (configuration not stated)
267 to 269	COc1cc(Nc2c(C#N)cnc3cc(Oc4ccncc4)c(OC)cc23)c(Cl)cc1Cl
42 to 43	COc1ccc(-n2cccc2)c(N)c1
165	COC(=O)COc1ccccc1Oc1cc(NC(=O)CC(O)(O)C(F)(F)F)c(F)cc1Cl
61.5 to 62.5	COc1ccc(C(=O)Oc2ccccc2)c(O)c1
33 to 36	CCOc1ccc(OC)c([N+](=O)[O-])c1
114 to 115	O=C(COCCc1coc2c(O)cccc12)c1ccccc1
108 to 110	Fc1ccc(-n2ccc3cc(-c4cccnc4)ccc32)cc1
107 to 111	CCCCCCCCOc1ccc2c(OC(C)=O)c3cc4ccccc4cc3c(OC(C)=O)c2c1

The remaining lines, values behind:

SMILES	melting point [°C]
C[C@@H]1CCC[C@H](C)N1CCN1CCN(CCCN2CCCCC2)C1=C(C#N)C#N	106 to 108
CC(C)c1cccc(C(C)C)c1NC(=O)CSCC(=O)O	168 to 169
Cn1c(-c2ccc(-c3ccccn3)cc2)c(C(=O)N2CCC(OCC(=O)O)CC2)c(=O)n1-c1ccc(C(=N)N)cc1	238 to 249
CCN1CCC(c2n[nH]c3cc(F)ccc23)CC1	175 to 178
ON=CCc1ccc(F)cc1	113 to 115
CC1(C)[C@@H]2CC3[C@H](C(N)=O)[C@@]3(C)C[C@@H]21 (some centres not stated)	122
COC=CC=C(C#N)C#N	74 to 76
CCOC(=O)CNC(=S)NC(=Nc1ccccc1)c1ccccc1	151 to 152
COc1ccc(C(=O)Nc2cccc3c2CCN(C)C3)cc1	170 to 172
O=C(NCC(=O)N(c1ccccc1)c1ccccc1)Nc1cccc([N+](=O)[O-])c1	180
CC(C)C(c1ccccc1O)N1CCOCC1 (configuration not stated)	73 to 77
CCNc1c(O)ccc(N(CCO)CCO)c1[N+](=O)[O-]	115
CN(Cc1ccc(NC(=O)C2=Cc3cc(-c4ccc5c(c4)CCO5)ccc3S(=O)(=O)CC2)cc1)C1CCOCC1	214 to 216
CC1(C)SCN(CCCCN2CCN(c3nc4ccccc4s3)CC2)C1=O	99.5 to 100
CCOC(=O)CSC1=CCC2C3CCC4=CC(=O)C=CC4(C)C3(F)C(O)CC12C (configuration not stated)	144 to 145
Cc1c([N+](=O)[O-])ccc2c1CCN2	169 to 171
CC12C=CC(=O)C(N)=C1CCC1C2CCC2(C)C(=O)CCC12 (configuration not stated)	162 to 169

SMILES	melting point [°C]
COc1ccc(-c2nc3sccn3c2/C=C/C(=O)c2cccs2)cc1	169 to 172
CSC(=S)C1(c2cccc(C)n2)CCCS1 (configuration not stated)	80
CC(=O)COc1ccc(CC2SC(=O)NC2=O)cc1 (configuration not stated)	158 to 159
O=C(O)c1cn(-c2cc(F)cc(C(F)(F)F)c2)cn1	> 250
CCCCOc1nc(N)c2[nH]c(=O)n(CCSc3cccc(CC(=O)O)c3)c2n1	205 to 207
COC(=O)CC(C(OC)OC)C(C)(C)S(=O)(=O)c1ccc(C)cc1 (configuration not stated)	110
Cc1c(N2CCCCC2)ccnc1CSc1nc2cc(N3CCCCC3)c(F)cc2[nH]1	161 to 162
O=C(O)[C@@H]1Cc2cc(Cl)cc(Cl)c2S[C@H]1C(F)(F)F (relative stereo)	165 to 170
Cc1cnc(CN2CCNC2=C[N+](=O)[O-])cn1	163 to 166
O=C(NCCCn1cncn1)Nc1cccc(C(F)(F)F)c1	97 to 99
CNC(=O)CC(SC(C)=O)C(CC(C)C)C(=O)NC(Cc1ccc(OC)cc1)C(=O)NC (configuration not stated)	195 to 199
Cc1ccc(N=NN2C(C)(C)CC(O)CC2(C)C)cc1	85 to 86
CCCC/C(=C\C=C\C(=O)Oc1ccc([N+](=O)[O-])cc1)c1ccc(OC)cc1	78 to 80
CCOc1ccc([N+](=O)[O-])c(NC)n1	101
CCCCCCCCCCCCCCCCCCOc1cccc(C(=O)C(=O)OC)c1	50 to 52
CC(C)(C)OC(=O)C=CC1C(C(=O)OC(C#N)c2ccc(F)c(Oc3ccccc3)c2)C1(C)C (configuration not stated)	114
